Results taken from US9062037B2, “Tazarotene derivatives” (Stiefel Laboratories, Inc., priority 2009, dated 2015).
Like-named read-outs stand apart in the source and are kept apart here.

Legend:
[1] = tested on: Reconstructed human epidermis (RHE) tissues; assay: RT-qPCR gene expression of K10, K19, filaggrin, K4 and K13 in reconstructed human epidermis (RHE) cultures; format: cell-based; conditions: 72 h, 2.83 mM in OD/10% DMSO, 6 μl
Description: Reconstructed human epidermis (RHE) tissues were cultured in-house as previously described by Poumay et al. Briefly, polycarbonate culture inserts (12 mm diameter and 0.4 μm pore size, Millipore) were filled with 150 μL of a suspension containing approximately 5×10^5 primary adult human keratinocytes. The inserts received another 500 μL of keratinocyte culture media and were placed in a 6-well plate (1 insert/well) containing 2.5 mL of RHE Growth Media (Epilife media +1.5 mM CaCl2). RHE cultures were incubated at 37° C. in a humidified atmosphere containing 5% CO2, for 24 hours. Subsequently (on Day 0), RHE cultures were exposed to the air-liquid interface by removing the RHE Growth Media from the top of the cultures, and replacing with 1.5 mL/well of RHE Growth Media containing 50 μg/mL vitamin C. Media was changed every other day until the cultures were dosed with Test Articles. A stock solution of 0.1% tazarotene (2.83 mM at 99.5% purity) in OD/10% DMSO was prepared. For tazarotene benzoate, hydroxytazarotenic acid, keto tazarotenic acid, keto tazarotene, and tazarotene nicotinate, a 10 mg/mL stock solution (in DMSO) was already prepared. From this stock solution, a 2.83 mM working solution (in octyldodecanol) was prepared. All other tested compounds were resuspended in DMSO and OD to obtain a final concentration of 2.83 mM in OD/10% DMSO. On Day 12, the cultures were placed in 60 mm petri dishes containing 3 mL of RHE Growth Media (+VitC). Test articles (6 μl) were applied to triplicate cultures and cultures were incubated at 37° C. for 72 hours. Untreated and OD alone served as negative controls. At the end of the incubation period, the growth media was collected and stored at −20° C. The tissues were cut in half: one half was placed in 10% NBF for histology, and the other half was placed in RNAlater™ solution for RT-qPCR. RNA was isolated and concentrations were determined using a NanoDrop spectrophotometer. In addition to using the same amount of RNA for each sample, data was normalized to internal GAPDH mRNA levels and is expressed as relative quantification (RQ) to untreated controls. RNA extracts from each replicate were amplified using RT-qPCR. The relative gene expression of five biomarkers was determined: Keratin 10, Keratin 19, Filaggrin, Keratin 4, and Keratin 13.

[2] = Reaction with benzoyl peroxide (BPO) in solution; format: physicochemical; conditions: at all three temperatures (35° C., room temperature, 5° C.); BPO 50-fold excess by weight
Description: The reaction of (i) tazarotene, tazarotene benzoate, hydroxy tazarotenic acid and tazarotene nicotinate with (ii) benzoyl peroxide (BPO) in 30% aqueous solutions was monitored at 35° C., room temperature and 5° C.
Individual solutions of each compound were prepared at approximately 0.25 mg/mL in acetonitrile:water (6:4 by volume). Reactions were initiated by mixing equal volumes of the test solution with an approximately 12 mg/mL solution of benzoyl peroxide (BPO) in acetonitrile:water (4:1 by volume). Therefore, the reaction solution contained approximately 0.125 mg/mL of the test compound and the BPO was at a 50-fold excess by weight (i.e. at the same ratio as a product containing 0.1% tazarotene and 5% BPO). Aliquots of the reaction solutions were stored at various temperatures protected from light.
Reactions were quenched by diluting 30 μL of the reaction solution to 50 mL with a diluent (acetonitrile:water in a ratio of 1:1 by volume) and storing the sample at 10° C. in the LC/MS sample tray or at 5° C. for storage. Duplicate samples were prepared at each time point (three at the start of the reaction) and the results were averaged together to generate a single value.
Samples were analyzed on a Waters Acquity UPLC with a Waters Xevo TQMS using an ESI source in the positive mode controlled by MassLynx V4.1 software. […]

[3] = HPLC analysis of mixtures of DUAC gel and TAZORAC cream (degradation of tazarotene in the presence of benzoyl peroxide); format: physicochemical; conditions: fresh samples; 35° C.; 4 hours
Description: DUAC® gel (1% clindamycin and 5% benzoyl peroxide marketed by Stiefel Laboratories, Inc.) and TAZORAC® cream (0.1% tazarotene marketed by Allergan, Inc.) have been successfully used to treat facial acne. However, these topical treatments are not approved for concomitant use. To study whether tazarotene is susceptible to oxidative decomposition by benzoyl peroxide, an in vitro laboratory study was conducted wherein a mixture of DUAC gel and TAZORAC cream was prepared.
Samples were prepared by taking equal portions of DUAC gel and TAZORAC cream and mixing them thoroughly at room temperature with a spatula in a suitable container to form a uniform mixture. The initial samples were analyzed immediately by HPLC. The other samples were placed into an oven at 35° C. and removed for analysis after one, two, four, six and eight hours. An allowance was made for product evaporation over the course of the study.

[4] = In vitro application of DUAC gel/TAZORAC cream mixture to split-thickness human skin; tazarotene and degradants quantified by LC/MS/MS; format: in vitro ADME
Description: An in vitro study was conducted to assess the formation of tazarotene degradants following the application of a mixture of DUAC gel and TAZORAC cream to human skin.
Equal portions of DUAC gel and TAZORAC cream were dispensed into a glass vial and mixed for approximately three minutes with a metal spatula to ensure a homogenous mixture. Samples of European DUAC gel and US DUAC gel were used in separate experiments. […] The test mixtures were then applied to the surface of split-thickness skin (˜0.25 mm) at a dose of 15.6 mg/cm^2 and spread evenly using a positive displacement pipette.
After 2 and 6 hours, the skin samples were washed, tape stripped twice, and then the epidermis was peeled from the dermis using a heat block. The skin samples were then extracted with acetonitrile overnight at 4° C. The distribution of tazarotene and its degradants within the epidermis, dermis and surface wash were quantified by LC/MS/MS with a 50 pg/mL LOQ. The experiments were performed under yellow light conditions. For the purposes of comparison, mixtures of DUAC gel and TAZORAC cream were also prepared and retained for stability testing at 0, 2 and 6 hour time points.

[5] = Stability in rat plasma at room temperature; format: in vitro ADME
Description: (§1) Tazarotene, tazarotene sulfoxide and tazarotene benzoate were incubated at room temperature with human and rat plasma. The incubation was carried out in duplicate and samples were taken at specific time points for stability analyses (i) rat samples (0 hour, 2 hours and 4 hours) and (ii) human samples (0 hour, 2 hours, 4 hours and 8 hours). Samples were analyzed by LC-MS/MS.

[6] = Stability in human plasma at room temperature; format: in vitro ADME
Description: as §1

[7] = for k constant: HLM
in vitro = conditions: human, liver microsomes, pH 7.4, Half-life, HLM

CCOC(=O)c1ccc(C#Cc2ccc3c(c2)C(C)(C)CC(OC(=O)c2cccnc2)S3)nc1 (stereo not drawn) [Compound 7, 6-[4,4-Dimethyl-2-(pyridine-3-carbonyloxy)thiochroman-6-ylethynyl]nicotinic acid ethyl ester]
fold induction at 2830 µM ([1]; read-out: K4 Fold Change vs Untreated/OD controls (upregulation)): 23 | fold induction at 2830 µM ([1]; read-out: K13 Fold Change vs Untreated/OD controls (upregulation)): 8 | fold induction at 2830 µM ([1]; read-out: K19 Fold Change vs Untreated/OD controls (upregulation)): 17 | less reactive with BPO than tazarotene and hydroxy tazarotenic acid [2]: ~25 times

CCOC(=O)c1ccc(C#Cc2ccc3c(c2)C(C)(C)CC[S+]3[O-])nc1 (stereo not drawn) [Tazarotene sulfoxide, 6-(4,4-Dimethyl-1-oxo-1λ^4-thiochroman-6-ylethynyl)nicotinic acid ethyl ester]
% Label Tazarotene Sulfoxide [3]: ~16 % Label | identified in the epidermis and dermis ([4]; after 2 hours of application of the DUAC/TAZORAC mixture to the skin): identified in the epidermis and dermis | quantity in stability samples at the 6 hour time point relative to the 2 hour time point ([4]; mixture of DUAC gel and TAZORAC cream retained for stability testing): doubled | concentration in rat plasma ([5]; 0 hour): 34.1 ng/mL | concentration in rat plasma ([5]; 2 hours): <LOD | concentration in rat plasma ([5]; 4 hours): <LOD | concentration in human plasma ([6]; 0 hour): 36.2 ng/mL | concentration in human plasma ([6]; 2 hours): 34.0 ng/mL | concentration in human plasma ([6]; 4 hours): 32.2 ng/mL | concentration in human plasma ([6]; 8 hours): 31.9 ng/mL | Test Article remaining, percent of initial concentration ([7]; 1 μM initial concentration, Complete (with NADPH), 0 min): 100% | Test Article remaining, percent of initial concentration ([7]; 1 μM initial concentration, Complete (with NADPH), 15 min): 25.6% | Test Article remaining, percent of initial concentration ([7]; 1 μM initial concentration, Complete (with NADPH), 30 min): 8.86% | Test Article remaining, percent of initial concentration ([7]; 1 μM initial concentration, Complete (with NADPH), 45 min): 4.24% | Test Article remaining, percent of initial concentration ([7]; 1 μM initial concentration, Complete (with NADPH), 60 min): 2.17% | Test Article remaining, percent of initial concentration ([7]; 1 μM initial concentration, Without NADPH, 0 min): 100% | Test Article remaining, percent of initial concentration ([7]; 1 μM initial concentration, Without NADPH, 15 min): 27.9% | Test Article remaining, percent of initial concentration ([7]; 1 μM initial concentration, Without NADPH, 30 min): 8.40% | Test Article remaining, percent of initial concentration ([7]; 1 μM initial concentration, Without NADPH, 45 min): 2.72% | Test Article remaining, percent of initial concentration ([7]; 1 μM initial concentration, Without NADPH, 60 min): 1.11% | Test Article remaining, percent of initial concentration ([7]; 10 μM initial concentration, Complete (with NADPH), 0 min): 100% | Test Article remaining, percent of initial concentration ([7]; 10 μM initial concentration, Complete (with NADPH), 15 min): 30.9% | Test Article remaining, percent of initial concentration ([7]; 10 μM initial concentration, Complete (with NADPH), 30 min): 11.4% | Test Article remaining, percent of initial concentration ([7]; 10 μM initial concentration, Complete (with NADPH), 45 min): 4.80% | Test Article remaining, percent of initial concentration ([7]; 10 μM initial concentration, Complete (with NADPH), 60 min): 2.70% | Test Article remaining, percent of initial concentration ([7]; 10 μM initial concentration, Without NADPH, 0 min): 100% | Test Article remaining, percent of initial concentration ([7]; 10 μM initial concentration, Without NADPH, 15 min): 30.4% | Test Article remaining, percent of initial concentration ([7]; 10 μM initial concentration, Without NADPH, 30 min): 8.96% | Test Article remaining, percent of initial concentration ([7]; 10 μM initial concentration, Without NADPH, 45 min): 2.98% | Test Article remaining, percent of initial concentration ([7]; 10 μM initial concentration, Without NADPH, 60 min): 1.18% | k constant ([7]; 1 μM, Complete): −0.0689 | k constant ([7]; 1 μM, Without NADPH): −0.0779 | k constant ([7]; 10 μM, Complete): −0.0647 | k constant ([7]; 10 μM, Without NADPH): −0.0763 | half-life at 1 µM (in vitro; Complete): 10.1 min | half-life at 1 µM (in vitro; Without NADPH): 8.9 min | half-life at 10 µM (in vitro; Complete): 10.7 min | half-life at 10 µM (in vitro; Without NADPH): 9.08 min
